Our source for the MIC values is DBAASP.

Each structure is given as a SMILES string. Values after ≈ are worked out from the molar mass of the structure shown.

The term MIC denotes the smallest concentration in the dilution series that meets the test's criterion for growth inhibition. The low end stands for a more susceptible organism, the high end for a less susceptible organism.

Some test systems named below: Escherichia coli 09-240; Escherichia coli 09-280; Escherichia coli 170; Escherichia coli 5509; Enterococcus sp. S13; Pseudomonas putida; Bacillus megaterium Bm11; Escherichia coli D21; Bacillus megaterium F04.
What all share (test): ≥ marks a high value that may be exact or a test limit, other limits are often not marked, values filed in µg/mL are converted to µM
Assay [1] has as its system Acinetobacter baumannii 5821.
Assay [2] relates to Enterobacter cloacae 06-267.
Assay [3] deals with Enterobacter cloacae 14-262.
For assay [4], the system named is Escherichia coli ATCC 25922.
In assay [5] the test system is Klebsiella pneumoniae 01-239.
Assay [6] deals with Klebsiella pneumoniae 01-252.
Assay [7] has as its system Pseudomonas aeruginosa 3599.
In assay [8] the test system is Pseudomonas aeruginosa 5106.
The test system of assay [9] is Pseudomonas aeruginosa ATCC 27853.
Assay [10] concerns Pseudomonas aeruginosa ATCC 9027.
Assay [11] concerns Staphylococcus aureus 01-001.
Assay [12] has as its system Staphylococcus aureus 06-051.
For assay [13], the system named is Staphylococcus aureus ATCC 29213.
For assay [14], the system named is Bacillus magaterium AB90008.
Assay [15] concerns Candida tropicalis AY91009.
The test system of assay [16] is Enterobacter cloacae AB2010162.
For assay [17], the system named is Escherichia coli DH5alpha.
Assay [18] concerns Klebsiella oxytoca AB2010143.
Assay [19] relates to Micrococcus luteus AB2010179.
Assay [20] relates to Salmonella enterica AB2010185.
Assay [21] has as its system Staphylococcus aureus 16472.
In assay [22] the test system is Staphylococcus aureus AB94004.
In assay [23] the test system is Bacillus subtilis ATCC 6633.
Assay [24] deals with Proteus vulgaris OX19 ATCC 6380.
Assay [25] concerns Pseudomonas aeruginosa OT97.
In assay [26] the test system is Shigella flexneri ATCC 203.
Assay [27] has as its system Staphylococcus aureus Cowan 1.
Assay [28] has as its system Staphylococcus aureus JC-1.
The test system of assay [29] is Legionella bozemanae ATCC 33217.
For assay [30], the system named is Legionella feeleii ATCC 35072.
Assay [31] has as its system Legionella longbeachae ATCC 33484.
Assay [32] relates to Legionella micdadei ATCC 33218.
The subject of assay [33] is Legionella oakridgensis ATCC 33761.
Assay [34] relates to Legionella pneumophila ATCC 33155.
The test system of assay [35] is Legionella pneumophila ATCC 33215.
Assay [36] relates to Legionella pneumophila ATCC 33216.
Assay [37] concerns Legionella pneumophila Corby.
For assay [38], the system named is Legionella pneumophila Lens.
Assay [39] relates to Legionella pneumophila Paris.

On to `CC[C@H](C)[C@H](NC(=O)[C@H](C)NC(=O)[C@H](CC(N)=O)NC(=O)[C@H](CCCCN)NC(=O)[C@@H](NC(=O)CNC(=O)[C@H](CCC(=O)O)NC(=O)[C@H](Cc1c[nH]c2ccccc12)NC(=O)[C@H](CC(C)C)NC(=O)[C@H](CCCCN)NC(=O)CNC(=O)[C@H](Cc1c[nH]c2ccccc12)NC(=O)[C@@H](N)Cc1ccccc1)C(C)C)C(N)=O` [FWGKLWEGVKNAI], for which the MIC is no less than 38 µM in assay [1]; no less than 32 µM in [2]; no less than 50 µM in assay [3]; no less than 50 µM with Escherichia coli 09-240; no less than 32 µM against Escherichia coli 09-280; no less than 32 µM with Escherichia coli 170. In addition, the MIC against Escherichia coli 5509 is no less than 32 µM; in assay [4], 25 µM (≈ 38.7 µg/mL); in [5], no less than 50 µM; in [6] it was no less than 32 µM; in [7], no less than 32 µM; in assay [8], no less than 32 µM. In addition, the MIC in assay [9] is greater than 32 µM; in assay [10], 40 µM (≈ 61.9 µg/mL); in assay [11], no less than 32 µM; in assay [12], no less than 32 µM; in assay [13], 32 µM (≈ 49.5 µg/mL).

Regarding `CC[C@H](C)[C@H](NC(=O)CN)C(=O)N[C@@H](CC(C)C)C(=O)NCC(=O)N[C@@H](CCCCN)C(=O)N[C@@H](CC(C)C)C(=O)N[C@@H](Cc1c[nH]c2ccccc12)C(=O)N[C@@H](CCC(=O)O)C(=O)NCC(=O)N[C@@H](Cc1ccccc1)C(=O)N[C@@H](CCCCN)C(=O)N[C@@H](CO)C(=O)N[C@H](C(=O)N[C@H](C(=O)O)C(C)C)[C@@H](C)CC` [GILGKLWEGFKSIV], the MIC in [14] is no less than 32 µM; in [15] it was 16 µM (≈ 24.8 µg/mL); in [16], no less than 76 µM; with Enterococcus sp. S13, 28 µM (≈ 43.3 µg/mL); in [17], no less than 62 µM; in [18] it was no less than 87 µM. Moreover, the MIC in [19] is no less than 32 µM; in the assay with Pseudomonas putida, no less than 87 µM; in assay [20] it was no less than 72 µM; in assay [21], 14 µM (≈ 21.7 µg/mL); in assay [22] it was 8 µM (≈ 12.4 µg/mL).

In the case of `CC[C@H](C)[C@H](NC(=O)[C@H](CCCCN)NC(=O)[C@@H](NC(=O)[C@@H](NC(=O)[C@H](CCC(N)=O)NC(=O)CNC(=O)[C@H](Cc1cnc[nH]1)NC(=O)[C@H](CCC(N)=O)NC(=O)[C@@H](N)CC(N)=O)C(C)C)C(C)C)C(=O)N[C@@H](Cc1ccccc1)C(=O)N[C@@H](Cc1cnc[nH]1)C(=O)N[C@@H](Cc1cnc[nH]1)C(=O)O` [NQHGQVVKIFHH], the minimal inhibitory concentration (MIC) against Bacillus megaterium Bm11 was no less than 800 µM; in assay [23], no less than 3200 µM; with Escherichia coli D21, no less than 3200 µM; in [24] it was no less than 6000 µM; in assay [25], no less than 6000 µM; in assay [26], no less than 6000 µM. Also, the minimal inhibitory concentration (MIC) in assay [27] is no less than 6000 µM; in assay [28], no less than 1600 µM.

Turning to `CC[C@H](C)[C@H](NC(=O)[C@H](CC(C)C)NC(=O)[C@H](CC(=O)O)NC(=O)[C@@H](NC(=O)[C@@H](NC(=O)[C@H](Cc1ccccc1)NC(=O)[C@H](CCC(N)=O)NC(=O)[C@@H](N)CCSC)[C@@H](C)CC)[C@@H](C)O)C(=O)N[C@@H](CCCCN)C(=O)N[C@@H](CCCCN)C(=O)N[C@@H](C)C(=O)N[C@H](C(=O)N[C@@H](CC(=O)O)C(=O)N[C@@H](Cc1ccccc1)C(=O)N[C@@H](Cc1ccccc1)C(=O)N[C@@H](CCCCN)C(=O)NCC(=O)N[C@@H](CC(C)C)C(=O)N[C@@H](Cc1ccccc1)C(=O)NCC(=O)N[C@@H](CC(N)=O)C(=O)N[C@@H](CCCCN)C(=O)O)C(C)C` [MQFITDLIKKAVDFFKGLFGNK], the MIC was 4.69 µM (≈ 12 µg/mL) in the assay with Bacillus megaterium F04; 19.5 µM (≈ 50 µg/mL) in assay [29]; 19.5 µM (≈ 50 µg/mL) in assay [30]; 19.5 µM (≈ 50 µg/mL) in [31]; 19.5 µM (≈ 50 µg/mL) in assay [32]; 19.5 µM (≈ 50 µg/mL) in [33]. The MIC came to 19.5 µM (≈ 50 µg/mL) in assay [34]; 19.5 µM (≈ 50 µg/mL) in assay [35]; 19.5 µM (≈ 50 µg/mL) in assay [36]; 19.5 µM (≈ 50 µg/mL) in [37]; 1.17 µM (≈ 3 µg/mL) in assay [38]; 19.5 µM (≈ 50 µg/mL) in assay [39].
